The values below come from patent US11130769B2 (Prelude Therapeutics Incorporated, priority 2018, dated 2021).

Like-named read-outs stand apart in the source and are kept apart here. A value given as a limit tells only on which side of the number the result lay.

For data set [1] the following is noted: 16-membered ring.
A further data set has as its system H929 cells. As to the kind of experiment: Cell viability assay (H929 10 FBS). Type of data set: cell-based. Particulars: Homo sapiens, NCI-H929, 24 hours, read-out: H929_10FBS IC50. Put shortly: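 ATP-based luminescence (CellTiter-Glo or ATPlite 1 Step, 30-60 min at RT) gauged viability of H929 myeloma cells after 24 h compound treatment at 37 °C. Cells plated at 4000 per well in 10% FBS RPMI 1640 supplemented with pyruvate, HEPES and glucose.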

The target of another data set is MCL-1 (Homo sapiens (Human), UniProt Q07820). Nature of the data set: Cell free Mcl-1:Bim affinity assay (fluorescence polarization competition). Particulars: 15 nM MCL-1, 5 nM FITC-Bim, 1 hour at room temperature; class symbols; read-out: BIM_Ki. Type of data set: binding. The method, boiled down:
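Fluorescence polarization competition: 10-point 3-fold compound dilutions displaced 5 nM FITC-Bim from 15 nM MCL-1 over 1 h at room temperature. Ki was derived from the fitted IC50 using the Nikolovska-Coleska equation, with percent inhibition normalized to DMSO and positive controls.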

MCL-1, sequence (Q07820 whole entry): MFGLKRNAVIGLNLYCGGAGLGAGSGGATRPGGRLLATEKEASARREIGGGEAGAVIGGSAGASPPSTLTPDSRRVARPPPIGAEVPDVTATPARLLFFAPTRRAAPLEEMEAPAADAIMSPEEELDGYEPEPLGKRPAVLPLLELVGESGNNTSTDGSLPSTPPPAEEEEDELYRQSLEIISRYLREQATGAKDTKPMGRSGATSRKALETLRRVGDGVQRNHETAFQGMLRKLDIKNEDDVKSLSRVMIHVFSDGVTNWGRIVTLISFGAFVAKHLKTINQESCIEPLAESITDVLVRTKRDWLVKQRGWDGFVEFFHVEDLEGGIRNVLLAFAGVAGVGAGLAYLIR

One may read the IC50 as the midpoint of a concentration-inhibition curve. As to `CO[C@@H]1/C=C/CCNC(=O)NS(=O)(=O)c2ccc3c(c2)N(C[C@@H]2CC[C@H]21)C[C@@]1(CCCc2cc(Cl)ccc21)CO3` [Example 106, (3R,6R,7R,8E,22S)-6′-Chloro-7-methoxy-15,15-dioxo-spiro[20-oxa-15-thia-1,12,14-triazatetracyclo[14.7.2.03,6.019,24]pentacosa-8,16,18,24-tetraene-22,1′-tetralin]-13-one], the ring closure, yield after HPLC in data set [1] (from C=CCCNC(=O)NS(=O)(=O)c1ccc2c(c1)N(C[C@@H]1CC[C@H]1[C@@H](C=C)OC)C[C@@]1(CCCc3cc(Cl)ccc31)CO2, rcm bond, Hoveyda-Grubbs II, DCE, 1.5 mM, 80.0 °C, 16.0 h) is 43%. The IC50 in the data set with H929 cells was < 1 µM. Also, the Ki on MCL-1 lay within 0.001 to 0.1 µM.
Turning to `C[C@H]1C(=O)NS(=O)(=O)c2ccc3c(c2)N(C[C@@H]2CC[C@H]2COCC(=O)N1C)C[C@@]1(CCCc2cc(Cl)ccc21)CO3` [Example 196, (3R,6R,12S,22S)-6′-Chloro-11,12-dimethyl-15,15-dioxo-spiro[8,20-dioxa-15-thia-1,11,14-triazatetracyclo[14.7.2.03,6.019,24]pentacosa-16,18,24-triene-22,1′-tetralin]-10,13-dione], the ring closure, yield after HPLC in data set [1] (from CN[C@@H](C)C(=O)NS(=O)(=O)c1ccc2c(c1)N(C[C@@H]1CC[C@H]1COCC(=O)O)C[C@@]1(CCCc3cc(Cl)ccc31)CO2, amide bond, HATU/DIEA, DMF, 20.0 mM, 20.0 °C, 1.0 h) is 24.6%. Besides, the IC50 in the data set on H929 cells was > 1 µM. Further, the Ki at MCL-1 lay within 0.001 to 0.1 µM.
In data set [1] (from C=CCOC(C)(C)C(=O)NS(=O)(=O)c1ccc2c(c1)N(C[C@@H]1CC[C@H]1[C@@H](C=C)NC(=O)OC)C[C@@]1(CCCc3cc(Cl)ccc31)CO2, rcm bond, Hoveyda-Grubbs II, DCE, 1.17 mM, 40.0 °C), `COC(=O)N[C@@H]1/C=C/COC(C)(C)C(=O)NS(=O)(=O)c2ccc3c(c2)N(C[C@@H]2CC[C@H]21)C[C@@]1(CCCc2cc(Cl)ccc21)CO3` [Example 251, Methyl N-[(3R,6R,7R,8E,22S)-6′-Chloro-12,12-dimethyl-13,15,15-trioxo-spiro[11,20-dioxa-15-thia-1,14-diazatetracyclo[14.7.2.03,6.019,24]pentacosa-8,16(25),17,19(24)-tetraene-22,1′-tetralin]-7-yl]carbamate] returned a ring closure, yield after HPLC of 18.4%. The IC50 in the data set with H929 cells is > 1 µM. Besides, the Ki at MCL-1 lay in the range of 0.001 to 0.1 µM.
In data set [1] (from CNCCOC(C)(C)C(=O)NS(=O)(=O)c1ccc2c(c1)N(C[C@@H]1CC[C@H]1C(=O)O)C[C@@]1(CCCc3cc(Cl)ccc31)CO2, amide bond, HATU/DIEA, DMF, 6.0 mM, 20.0 °C, 1.0 h), `CN1CCOC(C)(C)C(=O)NS(=O)(=O)c2ccc3c(c2)N(C[C@@H]2CC[C@H]2C1=O)C[C@@]1(CCCc2cc(Cl)ccc21)CO3` [Example 110, (3R,6R,22S)-6′-Chloro-8,12,12-trimethyl-15,15-dioxo-spiro[11,20-dioxa-thia-1,8,14-triazatetracyclo[14.7.2.03,6.019,24]pentacosa-16(25),17,19(24)-triene-22,1′-tetralin]-7,13-dione] had a ring closure, yield after HPLC of 25%. For the same compound, the IC50 in the data set with H929 cells is > 1 µM. The Ki at MCL-1 was in the range of 0.001 to 0.1 µM.
Compound `CC1(C)OC/C=C/[C@](C)(O)[C@@H]2CC[C@H]2CN2C[C@@]3(CCCc4cc(Cl)ccc43)COc3ccc(cc32)S(=O)(=O)NC1=O` yielded a ring closure, yield after HPLC in data set [1] (from C=CCOC(C)(C)C(=O)NS(=O)(=O)c1ccc2c(c1)N(C[C@@H]1CC[C@H]1[C@@](C)(O)C=C)C[C@@]1(CCCc3cc(Cl)ccc31)CO2, rcm bond, Zhan catalyst, DCE, 1.6 mM, 45.0 °C, 2.0 h) of 3.3%.
